{
  "source": "patent US7892789B2",
  "about": "“Method of increasing cell permeability to trehalose by recombinantly producing a trehalose transporter” (priority 2007, dated 2011)",
  "target": "T1, AgTRET1 (Anopheles gambiae, UniProt Q7PIR5)",
  "T1 construct": "ORF of either Tret1, DmTret1, AmTret1, AgTret1 or BmTret1 cDNA was amplified with PCR; expressed in transfected cells; host or cells: Xenopus laevis oocytes injected with cRNA",
  "T1 sequence (Q7PIR5 290-793)": "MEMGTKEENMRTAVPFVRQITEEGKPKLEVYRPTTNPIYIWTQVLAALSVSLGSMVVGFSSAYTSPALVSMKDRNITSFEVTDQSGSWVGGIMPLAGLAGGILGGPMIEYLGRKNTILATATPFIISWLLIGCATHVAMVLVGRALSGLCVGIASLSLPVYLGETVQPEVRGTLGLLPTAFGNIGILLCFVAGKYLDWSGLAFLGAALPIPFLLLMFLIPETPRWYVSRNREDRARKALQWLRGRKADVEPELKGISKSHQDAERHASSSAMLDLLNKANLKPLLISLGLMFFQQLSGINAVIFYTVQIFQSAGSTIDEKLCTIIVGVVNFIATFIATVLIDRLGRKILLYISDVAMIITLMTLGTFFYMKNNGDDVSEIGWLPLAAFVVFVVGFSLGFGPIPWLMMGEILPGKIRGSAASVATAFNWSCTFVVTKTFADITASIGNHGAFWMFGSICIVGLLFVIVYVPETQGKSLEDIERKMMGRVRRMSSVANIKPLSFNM",
  "assay": "Trehalose uptake in Xenopus oocytes expressing AgTRET1",
  "assay_type": "cell-based",
  "conditions": "105 mM of trehalose, 3 h",
  "excerpt": "The capped RNA (cRNA) expression vector pTRET1-XbG-ev1 series was constructed as follows: ORF of either Tret1, DmTret1, AmTret1, AgTret1 or BmTret1 cDNA was amplified with PCR using specific primers containing Bgl II site at the 5′-end on each primer, respectively. The PCR products were digested with the restriction enzymes, and cloned into the site of Bgl II in pXbG-ev1 (Preston, G. M., et al. (1992) Science 256, 385-387). ORF of hGLUT1 cDNA was obtained by digestion of pSPMM1 with BamH I, and then subcloned into the site of Bgl II in pXbG-2. Template DNAs for cRNA synthesis were amplified from the corresponding cRNA expression vectors with a high fidelity DNA polymerase, KOD—Plus—, (TOYOBO). The cRNAs were synthesized with mMESSAGE mMACHINE T7 Kit (Ambion), and then purified with RNeasy MiniElute Cleanup kit (Qiagen).\nAll uptake assays for zero-trans trehalose and/or other sugars were performed using Xenopus oocytes expressing TRET1 at 15° C. in MBS containing appropriate concentrations of sugars. Sugar concentrations were determined using HPLC (Watanabe, M., et al. (2002) J Exp Biol 205, 2799-2802). All assays were carried out in triplicate. […] (data not shown).\nLikewise, whether these Tret1-orthologs have trehalose transport activity was examined using the Xenopus oocyte expression system incubated in 105 mM of trehalose for 3 h.",
  "data": [
    {"smiles": "OC[C@H]1O[C@H](O[C@H]2O[C@H](CO)[C@@H](O)[C@H](O)[C@H]2O)[C@H](O)[C@@H](O)[C@@H]1O", "note": "[trehalose]", "values": [
      {"measurement": "trehalose transport activity", "result": "showed trehalose transport activity"}
    ]}
  ]
}
